Assay results published in PMC5919610, “Structural basis of product inhibition by arabinose and xylose of the thermostable GH43 β-1,4-xylosidase from Geobacillus thermoleovorans IT-08” (PLoS ONE, 2018).

Molecular target: T1, Xyl (GH43 β-1,4-xylosidase from Geobacillus thermoleovorans IT-08) (Geobacillus thermoleovorans, UniProt Q2I2N4)
T1 construct: complete Xyl (511 residues; 61,533 Da); E. coli BL21 (DE3), plasmid pET-xyl; one molecule per asymmetric unit, probably dimer in solution (PISA)
T1 sequence (Q2I2N4 1-511): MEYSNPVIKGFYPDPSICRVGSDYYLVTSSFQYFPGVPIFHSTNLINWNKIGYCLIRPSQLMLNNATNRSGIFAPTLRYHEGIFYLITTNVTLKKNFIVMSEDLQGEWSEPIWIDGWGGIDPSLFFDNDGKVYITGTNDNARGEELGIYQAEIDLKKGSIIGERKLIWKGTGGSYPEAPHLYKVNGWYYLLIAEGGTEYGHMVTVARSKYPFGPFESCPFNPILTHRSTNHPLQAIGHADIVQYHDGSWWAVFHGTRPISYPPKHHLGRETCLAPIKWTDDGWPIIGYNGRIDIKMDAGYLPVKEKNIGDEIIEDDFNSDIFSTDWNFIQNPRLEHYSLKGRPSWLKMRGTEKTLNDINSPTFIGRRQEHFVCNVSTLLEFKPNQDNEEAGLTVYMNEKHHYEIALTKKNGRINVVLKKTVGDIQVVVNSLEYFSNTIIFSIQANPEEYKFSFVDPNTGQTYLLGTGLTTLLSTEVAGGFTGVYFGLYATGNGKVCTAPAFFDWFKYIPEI
Test: X-ray crystal structure of soaked crystal
Assay type: binding
Conditions: 500 mM L-arabinose soak, 10 min, pH 7.0, 283 K; 2.10 Å; active site subsite -1; same site in ternary complex with D-xylose (5Z5I, 1.70 Å)

- X-ray crystal structure of soaked crystal: arabinose was only found in subsite -1
Compound: OC[C@@H]1O[C@H](O)[C@H](O)[C@H]1O [L-arabinose]
